Species: Rattus norvegicus
Assay: DrugMatrix - Regimen: Daily Repeat
Assay type: toxicity, organism-based, Sprague-Dawley
Parameters: regimen Daily Repeat, gender Male, age 6-8 weeks
Conditions: in vivo, po, route oral GAVAGE, vehicle 100 % WATER; for ABSOLUTE BASOPHIL / ABSOLUTE EOSINOPHIL / ABSOLUTE LYMPHOCYTE / ABSOLUTE MONOCYTE / ABSOLUTE SEGMENTED NEUTROPHIL / BASOPHIL / EOSINOPHIL / ERYTHROCYTE COUNT / HEMATOCRIT / HEMOGLOBIN / LEUKOCYTE COUNT / LYMPHOCYTE / MEAN CORPUSCULAR HEMOGLOBIN / MEAN CORPUSCULAR HEMOGLOBIN CONCENTRATION / MEAN CORPUSCULAR VOLUME / MONOCYTE / NEUTROPHIL / NUCLEATED RED BLOOD CELLS / PLATELET COUNT: tissue Blood; for ALANINE AMINOTRANSFERASE / ALBUMIN / ALKALINE PHOSPHATASE / ASPARTATE AMINOTRANSFERASE / BLOOD UREA NITROGEN / CARBON DIOXIDE / CHLORIDE / CHOLESTEROL / CREATINE PHOSPHOKINASE / CREATININE / GLUCOSE / LACTATE DEHYDROGENASE / LIPASE / PHOSPHORUS / POTASSIUM / SODIUM / TOTAL BILIRUBIN / TOTAL PROTEIN / URIC ACID: tissue Plasma
[1] = 27 mg/kg, 72 h, dose level High, time 3 day
[2] = 27 mg/kg, 120 h, dose level High, time 5 day
[3] = […], 72 h, dose 2.7 mg/Kg, dose level Low, time 3 day
[4] = […], 120 h, dose 2.7 mg/Kg, dose level Low, time 5 day

In the case of `NNCCc1ccccc1` [PHENELZINE], the “ABSOLUTE BASOPHIL” value [1] was 0 CELLS/uL, the “ABSOLUTE EOSINOPHIL” value [1] was 54.67 CELLS/uL and the “ABSOLUTE LYMPHOCYTE” value [1] was 7424 CELLS/uL. The “ABSOLUTE MONOCYTE” value [1] was 106.67 CELLS/uL, the “ABSOLUTE SEGMENTED NEUTROPHIL” value [1] was 481.33 CELLS/uL and the BASOPHIL [1] was 0%. The EOSINOPHIL [1] was 0.67%, the “ERYTHROCYTE COUNT” value [1] was 5.49 x10E6/uL and the HEMATOCRIT [1] was 35.1%. For the same compound, the HEMOGLOBIN [1] was 14.03 G/DL, the “LEUKOCYTE COUNT” value [1] was 8.07 x10E3/uL and the LYMPHOCYTE [1] was 92%. The “MEAN CORPUSCULAR HEMOGLOBIN” value [1] was 25.57 pg, the “MEAN CORPUSCULAR HEMOGLOBIN CONCENTRATION” value [1] was 39.97 G/DL and the “MEAN CORPUSCULAR VOLUME” value [1] was 63.93 fL. For the same compound, the MONOCYTE [1] was 1.33%, the NEUTROPHIL [1] was 6% and the “NUCLEATED RED BLOOD CELLS” value [1] was 0 /100WBC. For the same compound, the “PLATELET COUNT” value [1] was 1341.67 x10E3/uL, the “ALANINE AMINOTRANSFERASE” value [1] was 25.67 u/L and the ALBUMIN [1] was 4.5 G/DL. The “ALKALINE PHOSPHATASE” value [1] was 356.33 u/L, the “ASPARTATE AMINOTRANSFERASE” value [1] was 75.67 u/L and the “BLOOD UREA NITROGEN” value [1] was 16.67 mg/dL. The “CARBON DIOXIDE” value [1] was 31 mmol/L, the CHLORIDE [1] was 102.33 MEQ/L and the CHOLESTEROL [1] was 78.33 mg/dL. For the same compound, the “CREATINE PHOSPHOKINASE” value [1] was 265 u/L, the CREATININE [1] was 0.16 mg/dL and the GLUCOSE [1] was 143 mg/dL. The “LACTATE DEHYDROGENASE” value [1] was 131.33 u/L, the LIPASE [1] was 9.33 u/L and the PHOSPHORUS [1] was 11.73 mg/dL. The POTASSIUM [1] was 6.74 MEQ/L, the SODIUM [1] was 145.43 MEQ/L and the “TOTAL BILIRUBIN” value [1] was 0.23 mg/dL. For the same compound, the “TOTAL PROTEIN” value [1] was 6.07 G/DL, the “URIC ACID” value [1] was 1.23 mg/dL and the “ABSOLUTE BASOPHIL” value [2] was 0 CELLS/uL. For the same compound, the “ABSOLUTE EOSINOPHIL” value [2] was 69.33 CELLS/uL, the “ABSOLUTE LYMPHOCYTE” value [2] was 8987.33 CELLS/uL and the “ABSOLUTE MONOCYTE” value [2] was 88.33 CELLS/uL. For the same compound, the “ABSOLUTE SEGMENTED NEUTROPHIL” value [2] was 388.33 CELLS/uL, the BASOPHIL [2] was 0% and the EOSINOPHIL [2] was 0.67%. The “ERYTHROCYTE COUNT” value [2] was 6.17 x10E6/uL, the HEMATOCRIT [2] was 39.07% and the HEMOGLOBIN [2] was 15.3 G/DL. The “LEUKOCYTE COUNT” value [2] was 9.53 x10E3/uL, the LYMPHOCYTE [2] was 94.33% and the “MEAN CORPUSCULAR HEMOGLOBIN” value [2] was 24.8 pg. The “MEAN CORPUSCULAR HEMOGLOBIN CONCENTRATION” value [2] was 39.17 G/DL, the “MEAN CORPUSCULAR VOLUME” value [2] was 63.33 fL and the MONOCYTE [2] was 1%. For the same compound, the NEUTROPHIL [2] was 4%, the “NUCLEATED RED BLOOD CELLS” value [2] was 0 /100WBC and the “PLATELET COUNT” value [2] was 1357.33 x10E3/uL. For the same compound, the “ALANINE AMINOTRANSFERASE” value [2] was 18.67 u/L, the ALBUMIN [2] was 4.37 G/DL and the “ALKALINE PHOSPHATASE” value [2] was 271 u/L. The “ASPARTATE AMINOTRANSFERASE” value [2] was 103.33 u/L, the “BLOOD UREA NITROGEN” value [2] was 26 mg/dL and the “CARBON DIOXIDE” value [2] was 23 mmol/L. For the same compound, the CHLORIDE [2] was 110 MEQ/L, the CHOLESTEROL [2] was 68.33 mg/dL and the “CREATINE PHOSPHOKINASE” value [2] was 320.33 u/L. The CREATININE [2] was 0.2 mg/dL, the GLUCOSE [2] was 155 mg/dL and the “LACTATE DEHYDROGENASE” value [2] was 594.67 u/L. The LIPASE [2] was 10 u/L, the PHOSPHORUS [2] was 11.2 mg/dL and the POTASSIUM [2] was 5.16 MEQ/L. The SODIUM [2] was 150.7 MEQ/L, the “TOTAL BILIRUBIN” value [2] was 0.17 mg/dL and the “TOTAL PROTEIN” value [2] was 6 G/DL. The “URIC ACID” value [2] was 1.43 mg/dL, the “ABSOLUTE BASOPHIL” value [3] was 0 CELLS/uL and the “ABSOLUTE EOSINOPHIL” value [3] was 60.67 CELLS/uL. For the same compound, the “ABSOLUTE LYMPHOCYTE” value [3] was 9104.67 CELLS/uL, the “ABSOLUTE MONOCYTE” value [3] was 151.67 CELLS/uL and the “ABSOLUTE SEGMENTED NEUTROPHIL” value [3] was 949.67 CELLS/uL. The BASOPHIL [3] was 0%, the EOSINOPHIL [3] was 0.67% and the “ERYTHROCYTE COUNT” value [3] was 5.11 x10E6/uL. The HEMATOCRIT [3] was 32.4%, the HEMOGLOBIN [3] was 12.97 G/DL and the “LEUKOCYTE COUNT” value [3] was 10.27 x10E3/uL. The LYMPHOCYTE [3] was 88%, the “MEAN CORPUSCULAR HEMOGLOBIN” value [3] was 25.37 pg and the “MEAN CORPUSCULAR HEMOGLOBIN CONCENTRATION” value [3] was 40.03 G/DL. For the same compound, the “MEAN CORPUSCULAR VOLUME” value [3] was 63.37 fL, the MONOCYTE [3] was 1.67% and the NEUTROPHIL [3] was 9.67%. For the same compound, the “NUCLEATED RED BLOOD CELLS” value [3] was 0 /100WBC, the “PLATELET COUNT” value [3] was 935.33 x10E3/uL and the “ALANINE AMINOTRANSFERASE” value [3] was 55.33 u/L. For the same compound, the ALBUMIN [3] was 4.33 G/DL, the “ALKALINE PHOSPHATASE” value [3] was 325.33 u/L and the “ASPARTATE AMINOTRANSFERASE” value [3] was 98 u/L. The “BLOOD UREA NITROGEN” value [3] was 15.33 mg/dL, the “CARBON DIOXIDE” value [3] was 33 mmol/L and the CHLORIDE [3] was 101.67 MEQ/L. The CHOLESTEROL [3] was 78.33 mg/dL, the “CREATINE PHOSPHOKINASE” value [3] was 665.67 u/L and the CREATININE [3] was 0.17 mg/dL. For the same compound, the GLUCOSE [3] was 155 mg/dL, the “LACTATE DEHYDROGENASE” value [3] was 181.67 u/L and the LIPASE [3] was 9 u/L. The PHOSPHORUS [3] was 12.03 mg/dL, the POTASSIUM [3] was 6.23 MEQ/L and the SODIUM [3] was 144.83 MEQ/L. For the same compound, the “TOTAL BILIRUBIN” value [3] was 0.17 mg/dL, the “TOTAL PROTEIN” value [3] was 5.93 G/DL and the “URIC ACID” value [3] was 1.23 mg/dL. For the same compound, the “ABSOLUTE BASOPHIL” value [4] was 0 CELLS/uL, the “ABSOLUTE EOSINOPHIL” value [4] was 42 CELLS/uL and the “ABSOLUTE LYMPHOCYTE” value [4] was 10324 CELLS/uL. For the same compound, the “ABSOLUTE MONOCYTE” value [4] was 37 CELLS/uL, the “ABSOLUTE SEGMENTED NEUTROPHIL” value [4] was 997 CELLS/uL and the BASOPHIL [4] was 0%. The EOSINOPHIL [4] was 0.33%, the “ERYTHROCYTE COUNT” value [4] was 5.61 x10E6/uL and the HEMATOCRIT [4] was 36.03%. For the same compound, the HEMOGLOBIN [4] was 14.1 G/DL, the “LEUKOCYTE COUNT” value [4] was 11.4 x10E3/uL and the LYMPHOCYTE [4] was 90.67%. The “MEAN CORPUSCULAR HEMOGLOBIN” value [4] was 25.13 pg, the “MEAN CORPUSCULAR HEMOGLOBIN CONCENTRATION” value [4] was 39.2 G/DL and the “MEAN CORPUSCULAR VOLUME” value [4] was 64.23 fL. For the same compound, the MONOCYTE [4] was 0.33%, the NEUTROPHIL [4] was 8.67% and the “NUCLEATED RED BLOOD CELLS” value [4] was 0 /100WBC. The “PLATELET COUNT” value [4] was 1075 x10E3/uL, the “ALANINE AMINOTRANSFERASE” value [4] was 41.33 u/L and the ALBUMIN [4] was 4.57 G/DL. For the same compound, the “ALKALINE PHOSPHATASE” value [4] was 403 u/L, the “ASPARTATE AMINOTRANSFERASE” value [4] was 105.67 u/L and the “BLOOD UREA NITROGEN” value [4] was 21.67 mg/dL. The “CARBON DIOXIDE” value [4] was 25.67 mmol/L, the CHLORIDE [4] was 101.67 MEQ/L and the CHOLESTEROL [4] was 67 mg/dL. For the same compound, the “CREATINE PHOSPHOKINASE” value [4] was 480.33 u/L, the CREATININE [4] was 0.33 mg/dL and the GLUCOSE [4] was 130.33 mg/dL. For the same compound, the “LACTATE DEHYDROGENASE” value [4] was 623.33 u/L, the LIPASE [4] was 11.33 u/L and the PHOSPHORUS [4] was 12.7 mg/dL. The POTASSIUM [4] was 6.78 MEQ/L, the SODIUM [4] was 142.87 MEQ/L and the “TOTAL BILIRUBIN” value [4] was 0.27 mg/dL. For the same compound, the “TOTAL PROTEIN” value [4] was 6.3 G/DL and the “URIC ACID” value [4] was 1.63 mg/dL.
